The results in this text go back to patent US10689362B2, “Quinoxaline compounds as type III receptor tyrosine kinase inhibitors” (Development Center for Biotechnology, priority 2016, dated 2020).

One may read the IC50 as the concentration needed to halve the response being measured. Lower therefore signals higher potency. A word on the inhibition: it is the share of the control response that was lost under treatment.

In one test the target is CSF-1R kinase (Homo sapiens (Human), UniProt P07333). Nature of the test: CSF-1R kinase assay (AlphaScreen). In kind it is biochemical. The conditions noted are these: class symbol. The protocol:
Inhibition of CSF-1R kinase activity by a test compound disclosed herein was estimated by AlphaScreen (PerkinElmer). […] Reactions were incubated at 30° C. for 45 min and stopped by adding 5 μL of 50 mM EDTA. Analysis of resulting product using an AlphaScreen kit, and counted with Enspire Alpha (PerkinElmer). […] The IC50 values of quinoxaline compounds of this invention against CSF-1R kinase were determined using the GraphPad Prism 5 software.
Background: Bead proximity is the source of the signal in Alpha formats.

The target of another test is c-KIT kinase (Homo sapiens (Human), UniProt P10721). As to the kind of experiment: c-KIT kinase assay (radiometric). In kind it is biochemical. In a few lines:
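Recombinant c-Kit (20 ng) with 2 μg Poly-(Glu4:Tyr1) in MOPS pH 7.0 buffer with MgCl2/MnCl2, 10 μM ATP plus [^33P]-ATP, 4% DMSO final, 60 min at 30° C. Stopped with phosphoric acid, filter-captured and scintillation counted; IC50 from curve fit.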

Another test has as its target FLT3 kinase (Homo sapiens (Human), UniProt P36888). As to the kind of experiment: FLT3 kinase assay (radiometric). In kind it is biochemical. Conditions: bound. In a few lines:
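Recombinant FLT3 (5 ng) phosphorylating poly(Glu4:Tyr1) (2 μg) with 10 μM ATP plus [^33P]-ATP in MOPS pH 7.0 buffer, 4% DMSO final, 60 min at 30° C. Reaction stopped with phosphoric acid, filter-captured and scintillation-counted; IC50 derived from dose-response.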

A further test deals with PDGFRβ kinase (Homo sapiens (Human), UniProt P09619). Nature of the test: PDGFRβ kinase assay (radiometric). In kind it is biochemical. In a few lines:
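Radiometric assay: recombinant PDGFRβ with poly(Glu4:Tyr1) in MOPS pH 7.0 buffer containing Mg2+/Mn2+, 10 μM ATP plus [33P]-ATP, and compound at 4% DMSO final. Incubated 60 min at 30° C, stopped with phosphoric acid, filter-captured and scintillation-counted. IC50 from curve fitting.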

Test [1] has as its system CSF-1-dependent M-NFS-60 mouse myeloid leukemia cell. As to the kind of experiment: M-NFS-60 cell proliferation assay (CellTiter-96). Conditions: Cytotoxicity, M-NFS-60 cells, 72 hours. In kind it is cell-based. In a few lines: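 CSF-1-dependent M-NFS-60 cells seeded at 2000 cells/well, settled overnight at 37 °C, 5% CO2, then exposed to increasing compound concentrations for 72 h. Viability read by CellTiter 96 AQueous One reagent (4 h) at 490 nm absorbance.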

The subject of test [2] is MV4-11 human acute myeloid leukemia cell with FLT3-ITD mutation. Nature of the test: MV4-11 cell proliferation assay (CellTiter-96). Conditions: Cytotoxicity, MV4-11 cells, 72 hours. In kind it is cell-based. In a few lines: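 MV4-11 cells (FLT3-ITD, FLT3-dependent growth) seeded at 6500 cells/well, incubated overnight at 37° C., 5% CO2, then exposed to increasing compound concentrations for 72 hours. Viability read by CellTiter96 AQueous One reagent (4 hours), absorbance at 490 nm.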

In test [3] the test system is Kasumi-1 human acute myeloid leukemia cell with c-KIT N822K activating mutation. As to the kind of experiment: Kasumi-1 cell proliferation assay (CellTiter-96). In kind it is cell-based. The conditions noted are these: Cytotoxicity, Kasumi-1 cells, 72 hours. The procedure, abridged:
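Kasumi-1 cells, seeded at 64000 cells/well and incubated overnight at 37 °C, were exposed to increasing compound concentrations for 72 h. Viability was measured by CellTiter96 AQueous One reagent (4 h) and absorbance at 490 nm.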

Test [4] deals with THP-1 human acute monocytic leukemia cell harboring NRAS G12D mutation. As to the kind of experiment: THP-1 cell proliferation assay (counter screen, CellTiter-96). In kind it is cell-based. Conditions: Cytotoxicity, THP-1 cells (counter screen), 72 hours. In a few lines: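 THP-1 cells, RTK-independent owing to NRAS G12D, seeded at 5000/well, incubated overnight at 37 °C/5% CO2, then exposed to increasing compound concentrations for 72 h. CellTiter96 AQueous One reagent added for 4 h; viability from absorbance at 490 nm.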
For orientation: The purpose of a counterscreen is to sort out artefacts and off-target activity.

Test [5] deals with osteoclast precursors (osteoclast differentiation). Nature of the test: Osteoclast tartrate-resistant acid phosphatase assay. In kind it is cell-based. Conditions: 168 h, at 1 μM treatment, 7 days, RANKL and M-CSF, read-out: inhibition activity against osteoclast differentiation. The procedure, abridged: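 Differentiation inhibition was scored at 1 μM compound in duplicate, using supernatant TRAP activity read at 550 nm with an acid phosphatase kit.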

Sequence of CSF-1R kinase (P07333 20-972): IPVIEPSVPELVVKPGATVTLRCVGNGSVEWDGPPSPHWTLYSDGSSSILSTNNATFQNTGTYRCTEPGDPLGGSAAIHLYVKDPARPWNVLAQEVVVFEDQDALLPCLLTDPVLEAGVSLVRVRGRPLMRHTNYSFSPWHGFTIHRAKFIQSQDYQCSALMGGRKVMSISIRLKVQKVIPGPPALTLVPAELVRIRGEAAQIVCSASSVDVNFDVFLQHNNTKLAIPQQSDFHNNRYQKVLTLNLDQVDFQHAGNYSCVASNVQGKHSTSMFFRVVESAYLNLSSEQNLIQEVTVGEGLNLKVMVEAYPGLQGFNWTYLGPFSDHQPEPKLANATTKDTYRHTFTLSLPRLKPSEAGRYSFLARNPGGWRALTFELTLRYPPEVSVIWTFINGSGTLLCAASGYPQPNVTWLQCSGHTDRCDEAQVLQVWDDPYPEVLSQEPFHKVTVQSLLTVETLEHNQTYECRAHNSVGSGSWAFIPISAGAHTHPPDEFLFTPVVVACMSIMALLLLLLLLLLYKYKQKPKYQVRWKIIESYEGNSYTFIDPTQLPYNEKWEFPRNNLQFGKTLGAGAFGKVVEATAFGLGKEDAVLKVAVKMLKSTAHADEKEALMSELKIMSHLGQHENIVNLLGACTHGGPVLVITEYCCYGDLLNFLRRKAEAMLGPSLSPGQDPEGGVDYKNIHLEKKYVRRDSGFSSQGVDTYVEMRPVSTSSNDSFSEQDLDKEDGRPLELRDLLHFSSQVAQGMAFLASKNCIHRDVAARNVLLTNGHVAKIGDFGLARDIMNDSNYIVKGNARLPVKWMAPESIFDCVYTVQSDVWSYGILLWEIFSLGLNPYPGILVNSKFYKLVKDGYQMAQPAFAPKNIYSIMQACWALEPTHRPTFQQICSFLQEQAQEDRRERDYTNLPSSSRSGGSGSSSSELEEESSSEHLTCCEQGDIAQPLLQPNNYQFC
Sequence of c-KIT kinase (P10721 26-976): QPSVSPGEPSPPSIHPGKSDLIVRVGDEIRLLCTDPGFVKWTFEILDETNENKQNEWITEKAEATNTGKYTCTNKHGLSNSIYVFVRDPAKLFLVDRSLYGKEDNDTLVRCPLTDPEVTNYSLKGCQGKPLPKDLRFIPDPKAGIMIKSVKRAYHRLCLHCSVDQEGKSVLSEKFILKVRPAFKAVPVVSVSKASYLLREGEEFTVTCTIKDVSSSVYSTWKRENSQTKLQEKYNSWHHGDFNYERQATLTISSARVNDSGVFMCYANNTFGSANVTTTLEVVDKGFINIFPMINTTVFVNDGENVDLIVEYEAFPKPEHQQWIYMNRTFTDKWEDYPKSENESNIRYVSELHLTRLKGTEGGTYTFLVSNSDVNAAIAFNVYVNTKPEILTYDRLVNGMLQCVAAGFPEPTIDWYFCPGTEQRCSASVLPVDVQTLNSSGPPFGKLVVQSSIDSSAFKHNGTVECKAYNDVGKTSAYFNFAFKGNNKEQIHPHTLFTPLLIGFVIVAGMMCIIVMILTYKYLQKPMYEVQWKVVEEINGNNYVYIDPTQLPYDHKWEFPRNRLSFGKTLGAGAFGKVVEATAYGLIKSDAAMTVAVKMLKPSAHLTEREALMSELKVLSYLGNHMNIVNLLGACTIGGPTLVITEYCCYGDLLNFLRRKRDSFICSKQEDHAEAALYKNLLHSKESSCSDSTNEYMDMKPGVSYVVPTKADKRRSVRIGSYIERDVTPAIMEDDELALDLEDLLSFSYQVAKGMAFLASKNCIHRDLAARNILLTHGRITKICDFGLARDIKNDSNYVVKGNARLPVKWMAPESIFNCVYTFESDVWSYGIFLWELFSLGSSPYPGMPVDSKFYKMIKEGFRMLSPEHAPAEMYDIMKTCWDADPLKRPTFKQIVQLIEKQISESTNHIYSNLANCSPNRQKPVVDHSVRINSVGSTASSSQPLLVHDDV
Sequence of PDGFRβ kinase (P09619 33-1106): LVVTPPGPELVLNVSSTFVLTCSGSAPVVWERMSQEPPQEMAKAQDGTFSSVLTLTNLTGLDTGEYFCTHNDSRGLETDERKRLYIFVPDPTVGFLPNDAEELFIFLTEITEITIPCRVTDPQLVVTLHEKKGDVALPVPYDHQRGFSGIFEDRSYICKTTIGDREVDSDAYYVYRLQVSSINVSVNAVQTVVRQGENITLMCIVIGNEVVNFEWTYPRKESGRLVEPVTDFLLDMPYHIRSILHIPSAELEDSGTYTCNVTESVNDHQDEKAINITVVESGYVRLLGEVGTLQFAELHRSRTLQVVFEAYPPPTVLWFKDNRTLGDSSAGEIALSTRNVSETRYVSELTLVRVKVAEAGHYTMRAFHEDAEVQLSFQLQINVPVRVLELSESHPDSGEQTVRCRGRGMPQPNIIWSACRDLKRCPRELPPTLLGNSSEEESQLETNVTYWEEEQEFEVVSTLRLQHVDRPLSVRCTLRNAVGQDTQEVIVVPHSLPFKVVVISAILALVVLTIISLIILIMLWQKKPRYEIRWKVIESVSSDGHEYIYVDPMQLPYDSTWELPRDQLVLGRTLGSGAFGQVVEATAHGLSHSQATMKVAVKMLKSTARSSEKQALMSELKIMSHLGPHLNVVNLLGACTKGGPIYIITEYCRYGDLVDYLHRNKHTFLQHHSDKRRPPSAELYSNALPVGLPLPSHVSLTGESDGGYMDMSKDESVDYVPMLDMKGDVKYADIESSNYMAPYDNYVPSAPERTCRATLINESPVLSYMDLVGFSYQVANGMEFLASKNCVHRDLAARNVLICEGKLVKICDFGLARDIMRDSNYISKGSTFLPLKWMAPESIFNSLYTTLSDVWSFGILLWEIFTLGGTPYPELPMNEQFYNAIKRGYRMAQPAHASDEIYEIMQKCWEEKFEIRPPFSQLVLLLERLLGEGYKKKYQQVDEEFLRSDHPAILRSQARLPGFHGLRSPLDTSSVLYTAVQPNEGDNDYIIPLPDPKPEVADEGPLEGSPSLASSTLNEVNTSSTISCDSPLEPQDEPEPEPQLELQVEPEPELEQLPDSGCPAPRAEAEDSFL
Sequence of FLT3 kinase (P36888 27-993): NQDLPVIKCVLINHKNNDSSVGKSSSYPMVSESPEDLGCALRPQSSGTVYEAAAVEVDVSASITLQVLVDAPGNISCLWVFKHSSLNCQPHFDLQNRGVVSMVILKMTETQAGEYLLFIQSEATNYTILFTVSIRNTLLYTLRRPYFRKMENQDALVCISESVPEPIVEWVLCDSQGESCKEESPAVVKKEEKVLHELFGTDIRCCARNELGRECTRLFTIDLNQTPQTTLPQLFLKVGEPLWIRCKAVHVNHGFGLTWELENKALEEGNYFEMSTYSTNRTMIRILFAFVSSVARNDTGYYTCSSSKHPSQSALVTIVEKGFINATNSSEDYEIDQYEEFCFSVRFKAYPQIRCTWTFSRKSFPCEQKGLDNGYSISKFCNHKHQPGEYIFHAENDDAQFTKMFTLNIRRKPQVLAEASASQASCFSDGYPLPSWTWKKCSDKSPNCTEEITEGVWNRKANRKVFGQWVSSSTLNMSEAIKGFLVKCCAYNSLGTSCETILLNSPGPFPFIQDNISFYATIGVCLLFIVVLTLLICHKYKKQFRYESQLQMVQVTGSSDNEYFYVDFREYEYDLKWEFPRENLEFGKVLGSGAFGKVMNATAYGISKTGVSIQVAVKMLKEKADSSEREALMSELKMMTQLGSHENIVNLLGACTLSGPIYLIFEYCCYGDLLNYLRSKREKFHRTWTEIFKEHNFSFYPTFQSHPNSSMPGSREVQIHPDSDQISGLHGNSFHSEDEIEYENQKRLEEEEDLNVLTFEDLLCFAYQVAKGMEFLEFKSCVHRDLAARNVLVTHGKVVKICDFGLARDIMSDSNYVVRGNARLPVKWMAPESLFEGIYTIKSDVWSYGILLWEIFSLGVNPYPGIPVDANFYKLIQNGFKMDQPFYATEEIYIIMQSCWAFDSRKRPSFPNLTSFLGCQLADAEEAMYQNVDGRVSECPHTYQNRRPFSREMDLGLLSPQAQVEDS

For the molecule `COc1ccc(COc2ccc(Nc3ccc4ncc(N5CCOCC5)nc4c3C#N)cc2OC)c(F)c1` [Example 94, 6-((4-((2-fluoro-4-methoxybenzyl)oxy)-3-methoxyphenyl)amino)-3-morpholinoquinoxaline-5-carbonitrile], the IC50 against CSF-1R kinase was less than 100 nM; at c-KIT kinase (class symbol), less than 100 nM; on FLT3 kinase it was more than 1000 nM; at PDGFRβ kinase (bound) it was more than 1000 nM; in test [1], less than 300 nM; in [2], more than 10 µM. The IC50 in test [3] was 300 to 1000 nM; in [4] it was more than 10 µM. Further, in test [5], the inhibition at 1 µM was more than 50%.
Take `COc1cc(Nc2ccc3ncc(N4CCOCC4)nc3c2C#N)ccc1OCc1ccc(Cl)cc1` [Example 49, 6-((4-((4-chlorobenzyl)oxy)-3-methoxyphenyl)amino)-3-morpholinoquinoxaline-5-carbonitrile]: the IC50 on CSF-1R kinase is less than 100 nM; at c-KIT kinase (class symbol) it was less than 100 nM; at FLT3 kinase, more than 1000 nM; against PDGFRβ kinase (bound), more than 1000 nM; in test [1] it was less than 300 nM; in [2], 1 to 10 µM. For the same molecule, the IC50 in [3] is 300 to 1000 nM; in [4] it was more than 10 µM. The inhibition at 1 µM in test [5] is more than 50%.
Turning to `COc1cc(Nc2ccc3ncc(N4CCOCC4)nc3c2C#N)ccc1OCc1cccc(C#N)c1` [Example 65, 6-((4-((3-cyanobenzyl)oxy)-3-methoxyphenyl)amino)-3-morpholinoquinoxaline-5-carbonitrile], the IC50 was less than 100 nM against CSF-1R kinase; 100 to 300 nM on c-KIT kinase (class symbol); more than 1000 nM against FLT3 kinase; more than 1000 nM on PDGFRβ kinase (bound); less than 300 nM in [1]; more than 10 µM in test [2]. Moreover, the results for the half-maximal inhibitory concentration (IC50) in [3] and in [4] were more than 10000 nM and more than 10 µM, respectively. For the same molecule, the inhibition at 1 µM in test [5] was more than 50%.
In the case of `COc1ccc(COc2ccc(Nc3ccc4ncc(N5CCCC5)nc4c3C#N)cc2OC)cc1` [Example 62, 6-((3-methoxy-4-((4-methoxybenzyl)oxy)phenyl)amino)-3-(pyrrolidin-1-yl)quinoxaline-5-carbonitrile], the IC50 at CSF-1R kinase is less than 100 nM; against c-KIT kinase (class symbol), less than 100 nM; against FLT3 kinase it was more than 1000 nM; against PDGFRβ kinase (class symbol), 300 to 1000 nM; in test [1] it was less than 300 nM; in test [2] it was more than 10 µM. The IC50 in test [3] was less than 300 nM; in [4], more than 10 µM. The inhibition at 1 µM in [5] was more than 50%.
In the case of `CCOc1ccc(COc2ccc(Nc3ccc4ncc(N5CCOCC5)nc4c3C#N)cc2OC)cc1` [Example 35, 6-((4-((4-ethoxybenzyl)oxy)-3-methoxyphenyl)amino)-3-morpholinoquinoxaline-5-carbonitrile], the IC50 is less than 100 nM against CSF-1R kinase; less than 100 nM against c-KIT kinase (class symbol); more than 1000 nM against FLT3 kinase; 300 to 1000 nM against PDGFRβ kinase (class symbol); less than 300 nM in [1]; 1 to 10 µM in test [2]. The half-maximal inhibitory concentration (IC50) in [3] is less than 300 nM; in [4] it was more than 10 µM. In addition, in test [5], the inhibition at 1 µM was more than 50%.
For the molecule `COCCN1CCN(c2cnc3ccc(Nc4ccc(OCc5ccc(C)nc5)c(OC)c4)c(C#N)c3n2)CC1` [Example 100, 6-((3-methoxy-4-((6-methylpyridin-3-yl)methoxy)phenyl)amino)-3-(4-(2-methoxyethyl)piperazin-1-yl)quinoxaline-5-carbonitrile], the IC50 against CSF-1R kinase was less than 100 nM; against c-KIT kinase (class symbol), 100 to 300 nM; at FLT3 kinase, more than 1000 nM; against PDGFRβ kinase (bound), more than 1000 nM; in test [1], less than 300 nM; in test [2], 1 to 10 µM. Moreover, the figures for the IC50 in [3] and in test [4] were 300 to 1000 nM and more than 10 µM, respectively. Moreover, in test [5], the inhibition at 1 µM is more than 50%.
`COc1cc(Nc2ccc3ncc(N4CCOCC4)nc3c2C#N)ccc1OCc1ccc(F)cc1` [Example 40, 6-((4-((4-fluorobenzyl)oxy)-3-methoxyphenyl)amino)-3-morpholinoquinoxaline-5-carbonitrile]: the IC50 against CSF-1R kinase is less than 100 nM; against c-KIT kinase (bound), more than 1000 nM; on FLT3 kinase, more than 1000 nM; on PDGFRβ kinase (bound) it was more than 1000 nM; in test [1] it was less than 300 nM; in [2], more than 10 µM. Besides, the figures for the IC50 in test [3] and in test [4] were more than 10000 nM and more than 10 µM, respectively. Besides, the inhibition at 1 µM in [5] is more than 50%.
Regarding `COc1cc(Nc2ccc3ncc(N4CCOCC4)nc3c2C#N)ccc1OCc1ccc2c(c1)CCO2` [Example 45, 6-((4-((2,3-dihydrobenzofuran-5-yl)methoxy)-3-methoxyphenyl)amino)-3-morpholinoquinoxaline-5-carbonitrile], the IC50 is less than 100 nM at CSF-1R kinase; less than 100 nM on c-KIT kinase (class symbol); more than 1000 nM against FLT3 kinase; more than 1000 nM at PDGFRβ kinase (bound); less than 300 nM in test [1]; more than 10 µM in [2]. Further, the IC50 in test [3] was 300 to 1000 nM; in test [4] it was more than 10 µM. The inhibition at 1 µM in test [5] is more than 50%.
As to `COc1ccc(COc2ccc(Nc3ccc4ncc(N5CCC5)nc4c3C#N)cc2OC)cc1` [Example 83, 3-(azetidin-1-yl)-6-((3-methoxy-4-((4-methoxybenzyl)oxy)phenyl)amino)quinoxaline-5-carbonitrile], the IC50 against CSF-1R kinase was less than 100 nM; against c-KIT kinase (class symbol), less than 100 nM; at FLT3 kinase, more than 1000 nM; against PDGFRβ kinase (bound), more than 1000 nM; in test [1], less than 300 nM; in [2], more than 10 µM. Moreover, the IC50 was less than 300 nM in test [3] and more than 10 µM in test [4]. Further, the inhibition at 1 µM in test [5] is more than 50%.
Take `COc1cc(Nc2ccc3ncc(N4CCOCC4)nc3c2C#N)ccc1OCc1ccc(C(F)(F)F)nc1` [Example 73, 6-((3-methoxy-4-((6-(trifluoromethyl)pyridin-3-yl)methoxy)phenyl)amino)-3-morpholinoquinoxaline-5-carbonitrile]: the IC50 was less than 100 nM at CSF-1R kinase; less than 100 nM at c-KIT kinase (class symbol); more than 1000 nM at FLT3 kinase; more than 1000 nM on PDGFRβ kinase (bound); less than 300 nM in test [1]; more than 10 µM in [2]. The IC50 in test [3] is less than 300 nM; in test [4] it was more than 10 µM. Further, in [5], the inhibition at 1 µM is more than 50%.
As to `COc1cc(Nc2ccc3ncc(N4CCOCC4)nc3c2C#N)ccc1OCc1ccc(OC(F)(F)F)cc1` [Example 32, 6-((3-methoxy-4-((4-(trifluoromethoxy)benzyl)oxy)phenyl)amino)-3-morpholinoquinoxaline-5-carbonitrile], the IC50 against CSF-1R kinase was less than 100 nM; on c-KIT kinase (class symbol), less than 100 nM; at FLT3 kinase, more than 1000 nM; against PDGFRβ kinase (class symbol) it was 100 to 300 nM; in [1], less than 300 nM; in test [2], 1 to 10 µM. The figures for the IC50 in [3] and in test [4] were 300 to 1000 nM and more than 10 µM, respectively. Besides, the inhibition at 1 µM in test [5] is more than 50%.
Consider `COc1cc(Nc2ccc3ncc(N4CC(N(C)C)C4)nc3c2C#N)ccc1OCc1ccc(C)nc1` [Example 136, 3-(3-(dimethylamino)azetidin-1-yl)-6-((3-methoxy-4-((6-methylpyridin-3-yl)methoxy)phenyl)amino)quinoxaline-5-carbonitrile], for which the IC50 was less than 100 nM at CSF-1R kinase; less than 100 nM against c-KIT kinase (class symbol); more than 1000 nM against FLT3 kinase; more than 1000 nM against PDGFRβ kinase (bound); 300 to 1000 nM in test [1]; 1 to 10 µM in test [2]. For the same molecule, the IC50 in test [3] is 1000 to 10000 nM; in test [4], more than 10 µM. In addition, the inhibition at 1 µM in test [5] is more than 50%.
